BigSolDB 2.1

CSc1nc2cc(Oc3cccc(Cl)c3Cl)c(Cl)cc2[nH]1
solubility (mole fraction)
Settings	278.15 K	283.15 K	288.15 K	293.15 K	298.15 K	303.15 K	308.15 K	313.15 K	318.15 K
in 1,2-dichloroethane	0.00153	0.00187	0.00234	0.00289	0.00365	0.00429	0.00522	0.0063	0.00759
in acetonitrile	0.000629	0.000811	0.00106	0.00136	0.00164	0.00213	0.00264	0.0032	0.00396
in ethanol	0.00727	0.00878	0.0105	0.0126	0.0151	0.0181	0.0209	0.0244	0.0288
in ethyl acetate	0.0106	0.0125	0.0147	0.0173	0.0198	0.0232	0.0262	0.0306	0.0354
in ethyl formate	0.00501	0.00632	0.00795	0.00982	0.0121	0.0149	0.0177	0.0215	0.0258
in ethylene glycol	0.000323	0.000439	0.00057	0.000714	0.000934	0.0012	0.00152	0.00188	0.00231
in isobutanol	0.00455	0.00558	0.00698	0.00859	0.0109	0.0132	0.0161	0.0194	0.023
in isopropanol	0.00215	0.00272	0.00337	0.00411	0.00511	0.00619	0.00757	0.00914	0.0112
in methanol	0.00373	0.00458	0.00565	0.00691	0.00841	0.0101	0.0121	0.0144	0.017
in n-butanol	0.0221	0.0246	0.0273	0.0302	0.0333	0.0366	0.0399	0.0435	0.0473
in n-butyl acetate	0.0159	0.0181	0.0207	0.0232	0.0263	0.0298	0.0334	0.0372	0.0423
in n-pentyl acetate	0.0185	0.0214	0.0241	0.0277	0.0319	0.0361	0.0407	0.0453	0.0511
in n-propanol	0.00915	0.0108	0.0125	0.0146	0.017	0.0198	0.0229	0.0262	0.0301
in n-propyl acetate	0.0124	0.0146	0.017	0.0196	0.0228	0.0258	0.0299	0.0338	0.039
